Marks after values point to notes of the source that are not given here.
Tests used:
isolated rat aorta = test: Vasorelaxation effects on isolated blood vessels (methoxamine induced vasoconstriction); conditions: rat aorta constricted with methoxamine (3 μM)
Procedure: The following experiment was conducted to examine whether the compounds of the formula 1 have vasorelaxation effects.
Male Sprague-Dawly rats (350-450 g, obtained from the Experimental Animal Team of the Korea Research Institute of Chemical Technology) were knocked unconscious by hitting the occipital region, sacrificed by cervical dislocation, and underwent thoracotomy. After being quickly removed, the thoracic aorta was deprived of the adipose tissue and cut into aortic rings of 3 mm width. The aorta was lightly rubbed with a modified Krebs Henseleit buffer (Physiological Salt Solution, PSS) soaked cotton club to remove the inner epithelial layer therefrom. While being suspended in an organ bath containing a physiological buffer, the vascular tissue was allowed to equilibrate under a resting tension of 2 g and then, stand for 1 hour at 37° C. for stabilization with a supply of a carbogen consisting of 95% O2-5% CO2.
Thereafter, the vascular tissue was constricted with 10^−5 M phenylephrine and washed several times with PSS and this procedure was repeated again to ensure the stable reactivity of vascular smooth muscle to repetitive constriction/dilatation.
In addition, 3×10^−6 M methoxamine was used to induce an intensive constriction in the vascular smooth muscle. When the vasoconstriction induced by the methoxamine reached and maintained a maximum, test compounds and controls were cumulatively added to the organ baths in concentrations of 1, 3, 10 and 30 μM so as to induce vasodilatation. Cromakalim, BMS-180448, and BMS-191095 were used as the controls.
Following the addition of test compounds, the change in the maximal constriction induced by methoxamine was calculated to plot a concentration-relaxation response curve. Through a linear regression analysis, IC50, the drug concentration at which the vascular tissue is 50% dilated, was obtained for each compound.

isolated rat hearts = test: Cardioprotective activity in isolated ischemic rat heart (Langendorff); conditions: 10 μM
Procedure: In order to determine whether the compounds of the chemical formula 1 are protective for ischemic hearts in vitro, experiments determining the anti-ischemic effects of the compounds on isolated rat hearts were conducted as follows.
For all in vitro studies, isolated rat hearts were used according to the published methods after some modification [HJ Ring, Arzneim.-Forsch./Drug Res. 39 (II), 1535 (1989): T. Krzeminski, et al., J. Pharmacological Methods, 25, 95, (1991)]
Male Sprague-Dawley rats weighing 300-450 g were anesthetized with sodium pentobarbital (100 mg/kg, i.p.). The tail vein was injected with heparin (1,000 U/kg) and then the trachea was intubated. While rats were mechanically ventilated with a rodent ventilator (Model 7025, Ugobasile, Italy), their hearts were perfused in situ with oxygenated modified Krebs-Henseleit bicarbonate buffer (described herein) by retrograde aortic cannulation. The hearts were then excised and moved to a Langendorff apparatus (H.S.E., Germany), where they were perfused with oxygenated modified Krebs-Henseleit bicarbonate buffer containing (in mM) NaCl 116, NaHCO3 24.9, KCl 4.7, MgSO4 1.1, KH2PO4 1.17, CaCl2 2.52, glucose 8.32 and pyruvate 2.0 at a constant perfusion pressure (85 mm Hg). A latex balloon filled with solvent (ethanol:water=1:1 (v/v)) and attached to a metal cannula was placed in the left ventricle through pulmonary vein and connected to a Isotec pressure transducer (H.S.E., Germany) for measurement of left ventricular pressure (LVP). The hearts were allowed to equilibrate for 15 min, at which time left ventricular end-diastolic pressure (EDP) was adjusted to 5 mm Hg and this balloon volume was maintained throughout the experiment. Then, baseline contractile function, heart rate (HR), and coronary flow (CF) (extracorporeal electromagnetic flow probe, Narco Bio-System, U.S.A.) were measured. Cardiac contractile function was calculated by subtracting LVEDP from LV peak systolic pressure (LVSP), yielding developed pressure (LVDP). Double product (DP), another important parameter for assessing cardiac performance, was calculated by multiplying HR by LVDP. Throughout the experiment, all these parameters were measured, and calculated before and 10 min after pretreatment with each compound and 30 min after the onset of reperfusion with buffer. Data on reperfusion DP were further expressed as the percentage to pretreatment DP.
After stabilization for 15 min, the hearts were pretreated for 10 min with respective drugs (10 μM, 0.04% DMSO) or vehicle (0.04% DMSO) before onset of global ischemia; test agents were administered directly into the oxygenator of the Langendorff apparatus immediately above the aortic root in a retrograde fashion as solutions in the perfusate. We then rendered the hearts globally ischemic by completely shutting off the perfusate for 30 min. Severity of ischemia was determined as the time to contracture (TTC, min) during global ischemia in which the first 5 mmHg increase in EDP was observed. Then, the hearts were reperfused and, 30 min later, contractile function (LVDP, DP) and cumulative reperfusion lactate dehydrogenase (LDH) release were measured. LDH was measured as a sensitive index for loss of cell viability with a kit supplied by Boerhinger Mannheim based on the technique of Wroblewski and LaDue [F. Wroblewski and J S. La Due, Proc Soc Exp Biol Med 90, 210, (1955)].

ischemic hearts = test: Cardioprotective activity in ischemic heart model of anesthetized rats; conditions: Rat in vivo, 0.3 mg/kg i.v.
Procedure: In order to determine whether the compounds of formula 1 are protective for ischemic hearts, experiments determining the anti-ischemic effects of the compounds on rats were conducted as follows. Male rats (350-450 g, obtained from the Experimental Animal Team of the Korea Research Institute of Chemical Technology) were anesthetized by the intraperitoneal injection of pentobarbital at a dose of 75 mg/kg. After trachetomy, the rats were rendered to respire artificially at a rate of 60/min with a stroke volume of 10 ml/kg. Cannulars were inserted into the fermoral vein and the fermoral artery and used for drug administration and blood pressure measurement, respectively. In the ischemic myocardial injury models, the body temperature has an important influence on the results. To avoid the change in the body temperature, a body temperature measuring probe was inserted into the rectum of each rat and the body temperature was constantly kept at 37° C. with the aid of a homeothermic blanket control unit. Afterwards, during testing, a continuous measurement was made of the mean arterial blood pressures and heart rates from the rats. For the measurement of the blood pressure, a pressure transducer (Statham P23XL, Grass Ins., MA, U.S.A.) was used. The heart rate was measured by a tachometer (ECG/RATE Coupler, Hugo Sachs Electronic, German) identified as Biotachometer. In addition, all of the changes occurring were continuously recorded through the Gould 2000 chart recorder ([…] Linearcorder W R 3310, Hugo Sachs Electronic). The left coronary artery was occluded according to the Selye H. method as follows. The rats underwent a left thoracotomy operation for partial opening of the chest and the right-side chest was pressurized by the middle finger of the left hand to push the heart out. Immediately after the left anterior descending coronary artery hereinafter referred to as (LAD) was carefully stitched using a suture needle with 5-0 silk ligature, the heart was then repositioned in the thoracic cavity while both ends of the ligature were situated outside. The opposite ligature ends were passed through a PE tube (PE100, 2.5 cm) and allowed to stand loose for 20 min for stabilization. Via the cannula inserted into the femoral vein, vehicles or drugs were administered into the rats which were rendered to stand for 30 min in order to sufficiently elicit the efficacies of the drugs. […] From the images input into the computer, the area of the normal blood stream tissue region which appeared blue in a computer monitor and the area which appeared colorless were measured. The percentage of the colorless area to the total area of each slice was calculated and multiplied by the weight of each slice to determine the area at risk (AAR) of each slice. […]

[1] = system: HUVECs (Human umbilical vein endothelial cells); test: Inhibitory effects on HUVEC tube formation; format: cell-based;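 as to tube formation: from minus no inhibition up to plus-plus-plus complete inhibition versus vehicle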
Procedure: The Inhibitory effects of the compounds of the formula 1 on angiogenesis were meassured by the vascular tube formation assay of HUVECs (Human umbilical vein endothelial cells), which is one of the major angiogenic steps.
HUVECs were isolated from human umbilical vein, and cultured. HUVECs within passage 5 from confluent cultures were detached, and plated onto a layer of a bFGF (basic fibroblast growth factor)-reduced and polymerized Matrigel. Matrigel cultures were incubated with or without the compounds of formula 1, and the changes of cell morphology were captured through a phase contrast microscope and photographed.

A549 NSCLC = test: Inhibition on A549 NSCLC growth in nude mice xenografts; format: in vivo, nude mice (BALB/c nu/nu); conditions: for Inhibition (%) of tumor volume: 50 mg/Kg; for Tumor volume: 50 mg/Kg i.p. once daily day 1 to day 20
Procedure: Human tumor xenograft experiments were performed to evaluate whether the compounds of the formula 1 inhibit growth of human tumors implanted in nude mice.
(§1) Nude mice (BALB/c nu/nu, male) were purchased from Charls River Japan, Inc., and housed and treated under SPF (Special Pathogen Free) facilities according to the regulation of NIH (national institutes of health). A549 cells isolated from human non small cell lung cancer (NSCLC) were purchased from ATCC ([…], USA), and maintained as an exponentially growing monolayer in Korea Research Institute of Chemical Technology. Effects of the compounds of present invention on implanted tumor growth were measured by the comparison of tumor sizes, in addition, the changes of body weights and survival % of nude mice were observed.
Nude mice had been adjusted to the laboratory for 2-3 weeks after purchase, and all procedures were performed on male mice of 8 weeks of age, within a weight range of 18-20 g.
A549 tumor xenografts were established in the right flank of mice by subcutaneous injection of cells in 3×3×3 mm^3 size of culture. 24 hours after cell implantation, the administration of the compounds was started and which day is defined as day 1. Nude mice were injected intraperitoneally with the compound of example 23 (50 mg/kg) or vehicle (PBS containing 0.5% tween 80) once daily from day 1 to day 20. Tumor volume (V) was assessed by caliper measurement using the mathematical formula 1, where a was the longest diameter across the tumor and b was the corresponding perpendicular short diameter. Volume (mm^3)=a×b^2/2 [Mathematical Formula 1]
Inhibition (%) was calculated as (1−(VT)n/−(VC)n)×100, where (VT)n and (VC)n were the mean tumor volume of treated and control group at n days after administration of the compound. Each group consisted of 8 mice, and statistical significance was represented as student-T test (* p<0.05).

[2] = Changes of body weight in nude mice implanted A549; format: in vivo, nude mice (BALB/c nu/nu); conditions: 50 mg/Kg
Excerpt: as §1
The effects of the compounds of the formula 1 on changes of body weights were determined. Body weights of nude mice were measured using AND balance at 5 day intervals starting from the date of administration of compounds, and represented as a mean value of treated group […], respectively.

A549 implanted mice = test: Survival % in A549 implanted mice; format: in vivo; conditions: for Survival %: 50 mg/Kg
Excerpt: as §1
Survival percents were represented using following mathematical formula 2, where N0 is the number of mice at the first day of administration, and Nn is the number of mice at n days after administration. Survival %=Nn/N0×100 [Mathematical formula 2]

SPF SD rats = conditions: rat, in vivo, po;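 also: Six-week-old animals, two per group, followed across an observation period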

Compound `CC1(C)Oc2ccc(C#N)cc2C(N2CCCC2=O)C1O` (stereo not shown) [Cromakalim] has an IC50 (isolated rat aorta) of 67 nM.
`CC1(C)Oc2ccc(C#N)cc2C(N(Cc2ncc[nH]2)c2ccc(Cl)cc2)[C@H]1O` (stereo partly shown) [BMS-191095] showed an IC50 (isolated rat aorta) of 2140 nM.
For `CC1(C)Oc2ccc(C#N)cc2[C@@H](N=C(NC#N)Nc2ccc(Cl)cc2)[C@@H]1O` [BMS-180448, reference compound], the IC50 (isolated rat aorta) was 1380 nM, the “LDVP × HR (%)” value (isolated rat hearts; 30 min reperfusion, % of pretreatment DP) was 67.6% and the “TTC (time to contracture)” value (isolated rat hearts; global ischemia) was 27.8 min. For the same compound, the EDP (isolated rat hearts; reperfusion) was 16.5 MmHg, the “LDH (reperfusion release)” value (isolated rat hearts; reperfusion) was 17.2 U/g and the “AAR/LV (%)” value (ischemic hearts) was 38.8%. For the same compound, the “IZ/AAR (%)” value (ischemic hearts) was 39.1%.
With `COC(OC)[C@]1(C)Oc2ccc(N)cc2[C@H](N(Cc2ncc[nH]2)c2ccc(Cl)cc2)[C@H]1O` [Example 23, (2R,3R,4S)-6-amino-3,4-dihydro-2-dimethoxymethyl-3-hydroxy-2-methyl-4-[N-(4-chlorophenyl)-N-(1H-imidazol-2-ylmethyl)amino]-2H-1-benzopyran] the “inhibitory effect on HUVEC tube formation” value ([1]; 50 uM) was “didn't show any tube like structures”, the Tube formation ([1]; 50 μM) was “+++” and the “Inhibition (%) of tumor volume” value (A549 NSCLC; 25 days) was “(40%)”. The Tumor volume (A549 NSCLC; 25 days) was 92.2 mm^3, the “Inhibition (%) of tumor volume” value (A549 NSCLC; 35 days) was “(39%)” and the Tumor volume (A549 NSCLC; 35 days) was 186.8 mm^3. For the same compound, the “Inhibition (%) of tumor volume” value (A549 NSCLC; 45 days) was “(50%)”, the Tumor volume (A549 NSCLC; 45 days) was 244.3* mm^3 and the “Inhibition (%) of tumor volume” value (A549 NSCLC; 65 days) was “(52%)”. The Tumor volume (A549 NSCLC; 65 days) was 494.8* mm^3, the “Inhibition of A549 NSCLC growth” value (A549 NSCLC; from 45 days to 61 days after implantation) was 50-52% and the “retardation or loss of body weight gain” value [2] was “not observed”. For the same compound, the Body weight ([2]; 1 day) was 22.30 g, the Body weight ([2]; 14 days) was 25.42 g and the Body weight ([2]; 25 days) was 26.17 g. The Body weight ([2]; 35 days) was 27.10 g, the Survival % (A549 implanted mice; 1 day) was 100% and the Survival % (A549 implanted mice; 5 days) was 100%. It also gave a Survival % (A549 implanted mice; 15 days) of 100%, a Survival % (A549 implanted mice; 20 days) of 100% and a survival rate (A549 implanted mice; table 6) of 100%. The “clinical symptoms, body weight and mortality” value (SPF SD rats) was “no significant changes”.

Source: patent US7279497B2, “Benzopyran derivatives substituted with secondary amines including imidazole, their preparation and pharmaceutical compositions containing them” (Korea Research Institute of Chemical Technology, priority 2002, dated 2007)
